Source: PubChem BioAssay (NCI)
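At the GI50, growth is halved. TGI denotes the concentration required for complete inhibition of growth.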

Assays:
Experiment in all cases: NCI tumour cell line growth inhibition, 384-well format
[1] = tested on: NCI/ADR-RES ovarian
[2] = tested on: MDA-MB-435 melanoma
[3] = tested on: A498 renal
[4] = tested on: NCI-H226 lung
[5] = tested on: CAKI-1 renal
[6] = tested on: HL-60(TB) leukemia
[7] = tested on: SNB-19 CNS
[8] = tested on: OVCAR-8 ovarian
[9] = tested on: SN12C renal
[10] = tested on: NCI-H322M lung
[11] = tested on: ACHN renal
[12] = tested on: MDA-MB-468 breast
[13] = tested on: SNB-75 CNS
[14] = tested on: OVCAR-4 ovarian
[15] = tested on: UACC-257 melanoma
[16] = tested on: SK-MEL-5 melanoma
[17] = tested on: HS 578T breast
[18] = tested on: LOX IMVI melanoma
[19] = tested on: HT29 colon
[20] = tested on: SF-295 CNS
[21] = tested on: NCI-H522 lung
[22] = tested on: HCT-116 colon
[23] = tested on: RXF 393 renal
[24] = tested on: EKVX NSCLC
[25] = tested on: SK-MEL-28 melanoma
[26] = tested on: TK-10 renal
[27] = tested on: UACC-62 melanoma
[28] = tested on: HOP-92 NSCLC
[29] = tested on: 786-0 renal
[30] = tested on: KM12 colon
[31] = tested on: CCRF-CEM leukemia
[32] = tested on: NCI-H460 NSCLC
[33] = tested on: MCF7 breast
[34] = tested on: M14 melanoma
[35] = tested on: SW-620 colon
[36] = tested on: HCC-2998 colon
[37] = tested on: IGROV1 ovarian
[38] = tested on: NCI-H23 lung
[39] = tested on: SK-MEL-2 melanoma
[40] = tested on: COLO 205 colon
[41] = tested on: BT-549 breast
[42] = tested on: K-562 leukemia
[43] = tested on: HCT-15 colon
[44] = tested on: DU-145 prostate
[45] = tested on: RPMI-8226 leukemia
[46] = tested on: HOP-62 NSCLC
[47] = tested on: A549 NSCLC
[48] = tested on: MOLT-4 leukemia
[49] = tested on: SF-539 CNS
[50] = tested on: MALME-3M melanoma
[51] = tested on: OVCAR-3 ovarian
[52] = tested on: U251 glioblastoma
[53] = tested on: PC-3 prostate
[54] = tested on: SF-268 CNS
[55] = tested on: SK-OV-3 ovarian

CC(C)N=C(N)/N=C(\N)Nc1ccc2ccc3ccccc3c2c1
GI50 [1]: 10000 nM
TGI [1]: 21800 nM
GI50 [2]: 1730 nM
TGI [2]: 3120 nM
GI50 [3]: 1560 nM
TGI [3]: 2910 nM
GI50 [4]: 1640 nM
TGI [4]: 3010 nM
GI50 [5]: 1480 nM
TGI [5]: 2820 nM
GI50 [6]: 1410 nM
TGI [6]: 2720 nM
GI50 [7]: 1760 nM
TGI [7]: 3160 nM
GI50 [8]: 1700 nM
TGI [8]: 3100 nM
GI50 [9]: 1650 nM
TGI [9]: 3020 nM
GI50 [10]: 1840 nM
TGI [10]: 3250 nM
GI50 [11]: 1590 nM
TGI [11]: 2950 nM
GI50 [12]: 242 nM
TGI [12]: 1470 nM
GI50 [13]: 1610 nM
TGI [13]: 2960 nM
GI50 [14]: 1300 nM
TGI [14]: 2580 nM
GI50 [15]: 1480 nM
TGI [15]: 2820 nM
GI50 [16]: 1110 nM
TGI [16]: 2330 nM
GI50 [17]: 1720 nM
TGI [17]: 3100 nM
GI50 [18]: 1560 nM
TGI [18]: 2920 nM
GI50 [19]: 1710 nM
TGI [19]: 3130 nM
GI50 [20]: 1650 nM
TGI [20]: 3020 nM
GI50 [21]: 1560 nM
TGI [21]: 2910 nM
GI50 [22]: 1710 nM
TGI [22]: 3140 nM
GI50 [23]: 1580 nM
TGI [23]: 2930 nM
GI50 [24]: 1660 nM
TGI [24]: 3060 nM
GI50 [25]: 1850 nM
TGI [25]: 3270 nM
GI50 [26]: 1730 nM
TGI [26]: 3110 nM
GI50 [27]: 1490 nM
TGI [27]: 2830 nM
GI50 [28]: 1560 nM
TGI [28]: 2900 nM
GI50 [29]: 1750 nM
TGI [29]: 3140 nM
GI50 [30]: 1820 nM
TGI [30]: 3250 nM
GI50 [31]: 1440 nM
TGI [31]: 2770 nM
GI50 [32]: 1750 nM
TGI [32]: 3170 nM
GI50 [33]: 507 nM
TGI [33]: 1850 nM
GI50 [34]: 1890 nM
TGI [34]: 3300 nM
GI50 [35]: 1800 nM
TGI [35]: 3230 nM
GI50 [36]: 1400 nM
TGI [36]: 2710 nM
GI50 [37]: 1020 nM
TGI [37]: 2210 nM
GI50 [38]: 1530 nM
TGI [38]: 2860 nM
GI50 [39]: 1840 nM
TGI [39]: 3240 nM
GI50 [40]: 1760 nM
TGI [40]: 3160 nM
GI50 [41]: 1490 nM
TGI [41]: 2830 nM
GI50 [42]: 1890 nM
TGI [42]: 3300 nM
GI50 [43]: 1670 nM
TGI [43]: 3070 nM
GI50 [44]: 1790 nM
TGI [44]: 3230 nM
GI50 [45]: 1720 nM
TGI [45]: 3100 nM
GI50 [46]: 2070 nM
TGI [46]: 3510 nM
GI50 [47]: 1730 nM
TGI [47]: 3140 nM
GI50 [48]: 1360 nM
TGI [48]: 2650 nM
GI50 [49]: 1740 nM
TGI [49]: 3130 nM
GI50 [50]: 1430 nM
TGI [50]: 2750 nM
GI50 [51]: 1600 nM
TGI [51]: 2950 nM
GI50 [52]: 1790 nM
TGI [52]: 3190 nM
GI50 [53]: 1520 nM
TGI [53]: 2870 nM
GI50 [54]: 1870 nM
TGI [54]: 3290 nM
GI50 [55]: 1420 nM
TGI [55]: 2730 nM
